Assays:
Assay type in all cases: cell-based
[1] = test system: E. coli mdfA knockout strain; assay: MIC, efflux pump knockout mdfA; settings: Escherichia coli, read-out: MIC mdfA
Protocol: (§1) The inoculum used for all the experiments is derived from a single seed lot that is maintained as glycerol stocks at −80 °C and are sub cultured on LB plate for isolated colonies. Single colony of each strain is grown in M9 medium. All test compound stocks and dilutions are prepared in DMSO. Serial two-fold dilutions of compounds are prepared separately, with the concentrations ranging from 2 mg/mL to 0.015 mg/mL. To 150 µl (3–7 × 10^5 CFU/ml) of bacterial culture in 96 well microtitre plates, 3 μL compound from each of the dilutions is added to respective wells to obtain final concentrations ranging from 40 µg/mL to 0.3 µg/mL of the test compounds. Media control, culture control and appropriate reference drug controls are included. […] Growth is monitored by checking absorbance at 600 nm (A600). […] The samples from MIC and above concentrations are plated for MBC (Minimum Bactericidal Concentration). The samples are diluted 1:10 and plated on LB agar plates. […] The killing kinetics is determined by enumerating survivors at various time points following compound exposure. E. coli cells (~10^7 CFU/ml; A600 of 0.1) are treated with various concentrations (40 µg/mL to 0.3 µg/mL) of compounds in a 96-well microtitre plate. […] Data is expressed as the log10 CFU for each drug treatment.

[2] = test system: E. coli macB knockout strain; assay: MIC, efflux pump knockout macB; settings: Escherichia coli, read-out: MIC macB
Protocol: as §1

E. coli ∆tolC JW5503-1 = assay: MIC, E. coli ∆tolC; settings: Escherichia coli, read-out: MIC tolC
Protocol: as §1, with “plate. At various time intervals (0 to 8 h), 30 μl volumes of treated cultures are serially diluted and plated on LB agar plates.” for “plate.”

[3] = test system: E. coli emrE knockout strain; assay: MIC, efflux pump knockout emrE; settings: Escherichia coli, read-out: MIC emrE
Protocol: as §1

[4] = test system: E. coli acrZ knockout strain; assay: MIC, efflux pump knockout acrZ; settings: Escherichia coli, read-out: MIC acrZ
Protocol: as §1

[5] = test system: E. coli mdtL knockout strain; assay: MIC, efflux pump knockout mdtL; settings: Escherichia coli, read-out: MIC mdtL
Protocol: as §1

[6] = test system: E. coli mdtG knockout strain; assay: MIC, efflux pump knockout mdtG; settings: Escherichia coli, read-out: MIC mdtG
Protocol: as §1

[7] = test system: wild-type E. coli CGSC#7636 (BW25113); assay: MIC, wild-type E. coli; settings: Escherichia coli, BW25113, E. coli WT BW25113; read-out: MIC WT
Protocol: as §1, with “plate. At various time intervals (0 to 8 h), 30 μl volumes of treated cultures are serially diluted and plated on LB agar plates.” for “plate.”

[8] = test system: E. coli hsrA knockout strain; assay: MIC, efflux pump knockout hsrA; settings: Escherichia coli, read-out: MIC hsrA
Protocol: as §1

[9] = test system: E. coli acrD knockout strain; assay: MIC, efflux pump knockout acrD; settings: Escherichia coli, read-out: MIC acrD
Protocol: as §1

[10] = test system: E. coli bcr knockout strain; assay: MIC, efflux pump knockout bcr; settings: Escherichia coli, read-out: MIC bcr
Protocol: as §1

[11] = test system: E. coli mdtK knockout strain; assay: MIC, efflux pump knockout mdtK; settings: Escherichia coli, read-out: MIC mdtK
Protocol: as §1

[12] = test system: E. coli mdtB knockout strain; assay: MIC, efflux pump knockout mdtB; settings: Escherichia coli, read-out: MIC mdtB
Protocol: as §1

[13] = test system: E. coli acrF knockout strain; assay: MIC, efflux pump knockout acrF; settings: Escherichia coli, read-out: MIC acrF
Protocol: as §1

[14] = test system: E. coli emrB knockout strain; assay: MIC, efflux pump knockout emrB; settings: Escherichia coli, read-out: MIC emrB
Protocol: as §1

[15] = test system: E. coli emrY knockout strain; assay: MIC, efflux pump knockout emrY; settings: Escherichia coli, read-out: MIC emrY
Protocol: as §1

E. coli ∆acrB JW0451-2 = assay: MIC, E. coli ∆acrB; settings: Escherichia coli, read-out: MIC acrB
Protocol: as §1, with “plate. At various time intervals (0 to 8 h), 30 μl volumes of treated cultures are serially diluted and plated on LB agar plates.” for “plate.”

[16] = test system: E. coli yciM knockout strain; assay: MIC, efflux pump knockout yciM; settings: Escherichia coli, read-out: MIC yciM
Protocol: as §1

Measured: MIC

CN(C)[C@@H]1C(O)=C(C(N)=O)C(=O)[C@@]2(O)C(O)=C3C(=O)c4c(O)cccc4[C@@](C)(O)[C@H]3C[C@@H]12 [tetracycline, reference compound]
0.3 µg/mL: E. coli ∆tolC JW5503-1 | E. coli ∆acrB JW0451-2
1.2 µg/mL: all other assays above

From paper PMC5940854, “Nitrothiophene carboxamides, a novel narrow spectrum antibacterial series: Mechanism of action and Efficacy” (Scientific Reports, 2018)
